In publication PMC3744471, “Mitochondria Are the Target Organelle of Differentiation-Inducing Factor-3, an Anti-Tumor Agent Isolated from Dictyostelium Discoideum” (PLoS ONE, 2013):

Legend:
[1] = system: HeLa cells; experiment: Withdrawal of BODIPY-DIF-3: recovery of cell growth and mitochondrial morphology; type: cell-based, human; conditions: 20 µM 3 days, then 2 days DMSO
Method: In the assay of the effect of withdrawal of BODIPY-DIF-3 on cell growth (Figure 6A), HeLa cells were incubated for 3 days with 2 ml of DMEM-FBS containing 20 µM BODIPY-DIF-3 in 35-mm tissue culture dishes (Becton Dickinson, Franklin Lakes, NJ, USA) (5×10^3 cells/dish), washed 2 times with 2 ml of PBS(–), and further incubated for 2 days with 2 ml of DMEM-FBS containing 0.2% DMSO or 20 µM BODIPY-DIF-3; meanwhile, control cells were incubated for 5 days with 2 ml of DMEM-FBS containing 0.2% DMSO. Relative cell number was assessed as described above, and all experiments were performed in triplicate.

[2] = system: HeLa cells; experiment: Fluorescence microscopy: membrane permeability and cellular localization; type: cell-based, human; conditions: 20 µM
Method: (§1) HeLa cells were cultured for 1–2 days with 2 ml DMEM-FBS in 35-mm tissue culture dishes (Becton Dickinson), washed twice with PBS(–), and then fixed for 15–20 min at room temperature with 2 ml of 3.7% (v/v) formaldehyde in PBS(–). The cells were then washed twice with PBS(–) and used for staining with the fluorescent probes. Alternatively, the fixed cells were treated for 15–20 min with 2 ml of 0.1% (w/v) Triton X-100 in PBS(–), washed twice with PBS(–), and used for staining with the fluorescent probes. […]
(§2) For high magnification multi-color imaging, cells were incubated for the appropriate times with 2 ml of DMEM-FBS (HeLa and 3T3-L1) or MEM-α-FBS (LM8) containing various compounds in 35-mm plastic dishes (tissue culture treated µ-Dish; ibidi, Martinsried, Germany). The cells were washed twice with 2 ml of PBS(–), submerged in 2 ml of Hepes buffer (pH 7.4), and observed at room temperature with a Keyence BZ-9000 fluorescence microscope (Osaka, Japan) equipped with an oil immersion 100× lens (CFI Plan Apo VC100XH) and multi-filters that can distinguish four fluorescent probes simultaneously. […]

[3] = as above; type: cell-based, human; conditions: human, pH 7.4, HeLa, read-out: Time to reach maximal level in cells
Method: as §1, §2

[4] = system: mitochondrial malate dehydrogenase (mMDH); design: method as in PMID 20173310; conditions: cited from earlier work
[5] = system: calmodulin-dependent cyclic nucleotide phosphodiesterase (PDE1); design: method as in PMID 15059913; conditions: cited from earlier work

Row | Compound | Reversibility of action after withdrawal at Day 3 [1] | Time to penetrate the cell membrane [2] | Tmax at 20 µM [3] | Binding to and inhibition of mMDH [4] | Inhibition of PDE1 [5]
1 | CCCCCC(=O)c1c(O)cc(OCCCCNC(=O)CCC2=[N+]3C(=Cc4c(C)cc(C)n4[B-]3(F)F)C=C2)c(Cl)c1O [BODIPY-DIF-3] | reversible | ≤ 2 min | ≤ 30 min | – | –
2 | CCCCCC(=O)c1c(O)cc(OC)c(Cl)c1O [DIF-3, 1-(3-chloro-2,6-dihydroxy-4-methoxyphenyl)hexan-1-one] | – | – | – | neither binds nor inhibits mMDH | direct inhibitors of PDE1
